From ChEMBL document CHEMBL1909511, “Inhalation by design: novel tertiary amine muscarinic M₃ receptor antagonists with slow off-rate binding kinetics for inhaled once-daily treatment of chronic obstructive pulmonary disease” (J Med Chem, 2011)

What was measured:
[1] = target: Muscarinic acetylcholine receptor M3 (Cavia porcellus) (UniProt Q8VH26); test: Antagonist activity at M3 receptor in Dunkin-Hartley guinea pig tracheal strips assessed as time taken for electrically field-stimulated contractile response to recover by 25 percent of inhibition at Emax after 2 hrs; type: functional
[2] = target: Muscarinic acetylcholine receptor M3 (Cavia porcellus, UniProt Q8VH26); test: Antagonist activity at M3 receptor in Dunkin-Hartley guinea pig tracheal strips assessed as inhibition of electrically field-stimulated contractile response after 8 hrs; type: functional
[3] = tested on: Cavia porcellus; test: Bronchodilator activity in Dunkin-Hartley guinea pig assessed as inhibition of […] lung resistance after cumulative intratracheal administration in micelle solution at hourly intervals challenged each time 1 hr later with methacholine; type: functional, organism-based
[4] = target: T1, Muscarinic acetylcholine receptor M3 (Homo sapiens, UniProt P20309); test: Displacement of [3H]-NMS from human recombinant M3 receptor expressed in CHO cells after 2 hrs by filter binding assay; type: cell-based
Target sequence in this assay (P20309 whole entry): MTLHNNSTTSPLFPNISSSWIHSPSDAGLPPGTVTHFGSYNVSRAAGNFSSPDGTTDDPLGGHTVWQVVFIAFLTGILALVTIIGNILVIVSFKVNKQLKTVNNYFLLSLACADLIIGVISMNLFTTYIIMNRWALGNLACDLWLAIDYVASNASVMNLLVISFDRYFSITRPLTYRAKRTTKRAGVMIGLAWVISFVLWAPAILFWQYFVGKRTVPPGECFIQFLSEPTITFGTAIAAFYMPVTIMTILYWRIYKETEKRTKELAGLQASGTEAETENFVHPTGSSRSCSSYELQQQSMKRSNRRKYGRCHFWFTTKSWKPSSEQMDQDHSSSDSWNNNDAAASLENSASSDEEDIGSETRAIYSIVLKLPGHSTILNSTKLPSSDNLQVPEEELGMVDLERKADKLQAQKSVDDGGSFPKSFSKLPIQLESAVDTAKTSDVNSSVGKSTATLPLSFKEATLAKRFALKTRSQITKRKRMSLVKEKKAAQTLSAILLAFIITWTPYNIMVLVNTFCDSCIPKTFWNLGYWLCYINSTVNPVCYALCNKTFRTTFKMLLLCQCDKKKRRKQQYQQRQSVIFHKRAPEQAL

[5] = target: T2, Muscarinic acetylcholine receptor M2 (Homo sapiens, UniProt P08172); test: Displacement of [3H]-NMS from human recombinant M2 receptor expressed in CHO cells after 2 hrs by filter binding assay; type: cell-based
T2 sequence (P08172 whole entry): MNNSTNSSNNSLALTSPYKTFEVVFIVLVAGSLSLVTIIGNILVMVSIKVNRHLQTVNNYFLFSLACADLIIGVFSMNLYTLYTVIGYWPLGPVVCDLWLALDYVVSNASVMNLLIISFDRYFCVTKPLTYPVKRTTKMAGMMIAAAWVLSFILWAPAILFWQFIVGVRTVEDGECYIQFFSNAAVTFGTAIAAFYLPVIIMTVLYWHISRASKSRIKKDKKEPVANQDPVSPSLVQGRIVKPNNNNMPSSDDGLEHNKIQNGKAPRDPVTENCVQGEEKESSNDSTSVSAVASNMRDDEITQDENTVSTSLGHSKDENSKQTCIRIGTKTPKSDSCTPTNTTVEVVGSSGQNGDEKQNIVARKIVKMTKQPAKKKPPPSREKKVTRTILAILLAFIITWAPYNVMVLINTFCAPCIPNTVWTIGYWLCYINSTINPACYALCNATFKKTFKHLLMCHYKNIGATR

[6] = target: T1, Muscarinic acetylcholine receptor M3; settings: CHO
Target sequence in this assay (P20309 whole entry, looked up): as the sequence (P20309 whole entry) above

[7] = Intrinsic clearance in human liver microsomes assessed per mg of protein by glucuronidation assay in presence of Brijj-58 and UDPGA
[8] = Intrinsic clearance in human liver microsomes assessed per mg of protein in presence of NADPH
[9] = target: T1, Muscarinic acetylcholine receptor M3; test: Antagonist activity at human recombinant M3 receptor expressed in CHO-K1 cells assessed as inhibition of carbamoyl choline-induced calcium currents after 4 hrs by fluorimetry; type: functional, cell-based
Target sequence in this assay (P20309 whole entry): as the sequence (P20309 whole entry) above

[10] = target: T3, Muscarinic acetylcholine receptor M4 (Homo sapiens) (UniProt P08173); test: Displacement of [3H]-NMS from human recombinant M4 receptor expressed in CHO cells assessed as dissociation half life at 100 fold human M4 receptor binding Ki concentration after 24 hrs by dilution-offset filter binding assay; type: cell-based
T3 sequence (whole entry): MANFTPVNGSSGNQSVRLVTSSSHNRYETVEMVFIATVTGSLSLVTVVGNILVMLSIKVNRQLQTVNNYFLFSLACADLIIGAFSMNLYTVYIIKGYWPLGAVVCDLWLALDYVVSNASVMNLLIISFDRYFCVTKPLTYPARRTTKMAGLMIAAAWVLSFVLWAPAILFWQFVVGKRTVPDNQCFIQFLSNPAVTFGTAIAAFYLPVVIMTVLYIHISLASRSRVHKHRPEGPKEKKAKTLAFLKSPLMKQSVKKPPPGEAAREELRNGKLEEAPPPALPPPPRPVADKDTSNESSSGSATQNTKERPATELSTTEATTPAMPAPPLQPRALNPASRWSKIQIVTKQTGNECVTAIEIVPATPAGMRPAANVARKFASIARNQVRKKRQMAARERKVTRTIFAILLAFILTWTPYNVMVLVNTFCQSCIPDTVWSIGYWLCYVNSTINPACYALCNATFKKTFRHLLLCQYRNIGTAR

[11] = target: T1, Muscarinic acetylcholine receptor M3; settings: CHO; remark: listed apart in the source
Target sequence in this assay (P20309 whole entry, looked up): as the sequence (P20309 whole entry) above

[12] = target: T1, Muscarinic acetylcholine receptor M3
Target sequence in this assay (P20309 whole entry, looked up): as the sequence (P20309 whole entry) above

[13] = tested on: Canis familiaris; test: Bronchodilator activity in methacholine challenged Beagle dog assessed as intrinsic duration of action at 10 ug intratracheally administered as single dose in micelle solution; type: functional, Canis lupus familiaris
[14] = target: T4, Muscarinic acetylcholine receptor M2 (Homo sapiens) (UniProt P08172); test: Displacement of [3H]-NMS from human recombinant M2 receptor expressed in CHO cells assessed as dissociation half life at 100 fold human M2 receptor binding Ki concentration after 24 hrs by dilution-offset filter binding assay; type: cell-based
T4 sequence (whole entry): T2 sequence (P08172 whole entry)

[15] = target: T5, Muscarinic acetylcholine receptor M4 (Homo sapiens, UniProt P08173); test: Displacement of [3H]-NMS from human recombinant M4 receptor expressed in CHO cells after 24 hrs by filter binding assay; type: cell-based
T5 sequence (P08173 whole entry): T3 sequence (whole entry)

[16] = tested on: Canis familiaris; test: Bronchodilator activity in Beagle dog assessed as inhibition of methacholine-induced lung resistance after cumulative intratracheal administration in micelle solution at hourly intervals challenged each time 1 hr later with methacholine; type: functional, Canis lupus familiaris
[17] = target: T1, Muscarinic acetylcholine receptor M3; remark: listed apart in the source
Target sequence in this assay (P20309 whole entry, looked up): as the sequence (P20309 whole entry) above
Description: Displacement of radioligand from M3 receptor assessed as dissociation half life

[18] = target: T6, Muscarinic acetylcholine receptor M1 (Homo sapiens) (UniProt P11229); test: Displacement of [3H]-NMS from human recombinant M1 receptor expressed in CHO cells assessed as dissociation half life at 100 fold human M1 receptor binding Ki concentration after 24 hrs by dilution-offset filter binding assay; type: cell-based
T6 sequence (whole entry): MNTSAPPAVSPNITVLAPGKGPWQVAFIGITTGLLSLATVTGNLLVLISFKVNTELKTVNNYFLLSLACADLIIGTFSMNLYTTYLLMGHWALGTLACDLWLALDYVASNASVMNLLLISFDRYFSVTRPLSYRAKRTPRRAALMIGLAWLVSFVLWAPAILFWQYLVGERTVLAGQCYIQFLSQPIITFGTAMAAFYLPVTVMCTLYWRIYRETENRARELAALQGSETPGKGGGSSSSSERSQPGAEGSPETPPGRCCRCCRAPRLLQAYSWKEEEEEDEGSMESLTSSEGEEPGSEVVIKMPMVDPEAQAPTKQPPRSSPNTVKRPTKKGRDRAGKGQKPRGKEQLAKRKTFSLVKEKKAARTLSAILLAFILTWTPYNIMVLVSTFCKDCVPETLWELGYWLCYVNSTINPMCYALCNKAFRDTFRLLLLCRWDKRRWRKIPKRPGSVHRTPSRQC

[19] = target: T7, Muscarinic acetylcholine receptor M5 (Homo sapiens, UniProt P08912); test: Displacement of [3H]-NMS from human recombinant M5 receptor expressed in CHO cells after 24 hrs by filter binding assay; type: cell-based
T7 sequence (P08912 whole entry): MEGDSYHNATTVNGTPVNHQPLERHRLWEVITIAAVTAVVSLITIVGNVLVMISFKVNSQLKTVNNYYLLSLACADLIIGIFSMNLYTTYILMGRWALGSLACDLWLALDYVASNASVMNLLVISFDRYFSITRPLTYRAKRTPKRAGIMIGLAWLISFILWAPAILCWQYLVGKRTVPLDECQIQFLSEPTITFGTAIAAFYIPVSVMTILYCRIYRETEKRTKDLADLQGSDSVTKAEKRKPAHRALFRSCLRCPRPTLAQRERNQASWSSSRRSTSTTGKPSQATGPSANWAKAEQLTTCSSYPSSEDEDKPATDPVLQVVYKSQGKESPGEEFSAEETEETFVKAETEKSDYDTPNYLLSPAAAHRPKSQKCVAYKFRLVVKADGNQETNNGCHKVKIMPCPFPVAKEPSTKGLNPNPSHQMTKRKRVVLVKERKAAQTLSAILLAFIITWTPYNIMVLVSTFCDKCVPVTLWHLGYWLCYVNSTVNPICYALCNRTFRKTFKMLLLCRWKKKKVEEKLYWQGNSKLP

[20] = target: T8, Muscarinic acetylcholine receptor M5 (Homo sapiens) (UniProt P08912); test: Displacement of [3H]-NMS from human recombinant M5 receptor expressed in CHO cells assessed as dissociation half life at 100 fold human M5 receptor binding Ki concentration after 24 hrs by dilution-offset filter binding assay; type: cell-based
T8 sequence (whole entry): T7 sequence (P08912 whole entry)

[21] = Intrinsic clearance in human hepatocytes assessed per million cells
[22] = Apparent permeability across basolateral to apical side in human Caco2 cells; type: ADME, cell-based; settings: Caco-2
[23] = Apparent permeability across apical to basolateral side in human Caco2 cells; type: ADME, cell-based; settings: Caco-2

Sequence of Muscarinic acetylcholine receptor M3 (Cavia porcellus) (Q8VH26 1-587): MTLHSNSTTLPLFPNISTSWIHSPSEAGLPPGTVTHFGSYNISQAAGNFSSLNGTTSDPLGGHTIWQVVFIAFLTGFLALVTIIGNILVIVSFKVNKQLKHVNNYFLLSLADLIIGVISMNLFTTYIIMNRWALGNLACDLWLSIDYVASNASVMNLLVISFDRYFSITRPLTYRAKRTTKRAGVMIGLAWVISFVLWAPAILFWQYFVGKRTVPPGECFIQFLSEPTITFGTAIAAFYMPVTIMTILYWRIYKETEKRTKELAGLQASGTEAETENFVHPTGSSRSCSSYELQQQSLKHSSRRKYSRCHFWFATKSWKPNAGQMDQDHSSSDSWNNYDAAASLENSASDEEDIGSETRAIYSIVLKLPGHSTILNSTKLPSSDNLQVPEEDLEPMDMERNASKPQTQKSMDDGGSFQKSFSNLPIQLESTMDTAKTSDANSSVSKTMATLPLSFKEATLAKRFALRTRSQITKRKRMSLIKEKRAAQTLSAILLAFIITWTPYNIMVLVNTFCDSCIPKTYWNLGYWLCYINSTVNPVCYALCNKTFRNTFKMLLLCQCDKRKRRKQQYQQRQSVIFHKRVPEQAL
Sequence of Muscarinic acetylcholine receptor M3 (Cavia porcellus, UniProt Q8VH26) (Q8VH26 whole entry): as the sequence (Q8VH26 1-587) above

Structure (SMILES): CC(C)(CCC(C(N)=O)(c1ccccc1)c1ccccc1)N1CC[C@@H](Oc2cccc(O)c2)C1
- TIME [1]: > 16 h
- IC50 [2]: 3.87 nM
- ED50 [3]: 20 µg

Structure (SMILES): CC(C)(CCC(C(N)=O)(c1ccccc1)c1ccccc1)N1CC[C@H](Oc2cccc(O)c2)C1
- TIME [1]: > 16 h
- IC50 [2]: 4.3 nM
- ED50 [3]: 10 µg

Structure (SMILES): CC(C)(CCC(C(N)=O)(c1ccccc1)c1ccccc1)N1CCC(Oc2ccccc2)CC1
- Ki [4]: 3.9 nM
- Ki [5]: 2.6 nM
- T1/2 [6]: 17.5 h

Structure (SMILES): CC(C)(CCC(C(N)=O)(c1ccccc1)c1ccccc1)N1CC(Oc2cc(O)cc(F)c2)C1
- microsomal CLint [7]: 403 µL/min/mg
- microsomal CLint [8]: 176 µL/min/mg

Structure (SMILES): NC(=O)C(CCCN1CC[C@H](Oc2ccccc2)C1)(c1ccccc1)c1ccccc1
- Ki [9]: 2.4 nM
- Ki [4]: 1.9 nM
- Ki [5]: 15 nM
- T1/2 [6]: 0.633 h

Structure (SMILES): CC(C)(CCC(C(N)=O)(c1ccccc1)c1ccccc1)N1CC[C@H](Oc2ccc(O)cc2)C1
- Ki [9]: 0.76 nM
- T1/2 [6]: 3.82 h

Structure (SMILES): C[N+]1(C)[C@@H]2C[C@@H](OC(=O)C(O)(c3cccs3)c3cccs3)C[C@H]1[C@@H]1O[C@@H]12.O.[Br-] [TIOTROPIUM BROMIDE]
- T1/2 [10]: > 24 h
- T1/2 [11]: > 22.8 h
- pKb [12]: 10.2
- Time [13]: 32 h
- TIME [1]: > 12.9 h
- T1/2 [14]: > 13 h
- Ki [15]: 0.0078 nM
- ID50 [16]: 3 µg
- T1/2 [17]: 9.45 h
- T1/2 [18]: > 23.8 h
- Ki [19]: 0.0266 nM
- T1/2 [6]: > 24 h
- T1/2 [20]: > 24 h

Structure (SMILES): CC(C)(CCC(C(N)=O)(c1ccccc1)c1ccccc1)N1CC(Oc2ccccc2)C1
- Ki [4]: 0.11 nM
- Ki [5]: 0.056 nM
- T1/2 [6]: 8.02 h
- microsomal CLint [8]: > 440 µL/min/mg

Structure (SMILES): CC(C)(CCC(C(N)=O)(c1ccccc1)c1ccccc1)N1CC[C@H](Oc2ccc(Cl)c(O)c2)C1
- Ki [9]: 2 nM
- T1/2 [6]: 13.4 h

Structure (SMILES): CC(C)(CCC(C(N)=O)(c1ccccc1)c1ccccc1)N1CC[C@@H](Oc2cc(O)cc(F)c2)C1
- Ki [9]: 0.56 nM
- hepatocyte CLint [21]: 114 µL/min/1e6 cells
- T1/2 [6]: > 24 h
- microsomal CLint [8]: > 440 µL/min/mg

Structure (SMILES): CC(C)[N+]1(C)C2CCC1CC(OC(=O)C(CO)c1ccccc1)C2.O.[Br-] (stereo not given)
- TIME [1]: 1.47 h
- ID50 [16]: 10 µg

Structure (SMILES): CC(C)(CCC(C(N)=O)(c1ccccc1)c1ccccc1)N1CC(Oc2ccccc2O)C1
- Ki [9]: 11 nM

Structure (SMILES): CC(C)(CCC(C(N)=O)(c1ccccc1)c1ccccc1)N1CC[C@H](Oc2ccccc2)C1
- Ki [9]: 0.25 nM
- Papp B→A [22]: 13 ×10⁻⁶ cm/s
- Papp A→B [23]: 16 ×10⁻⁶ cm/s
- Ki [4]: 1.8 nM
- Ki [5]: 1.6 nM
- T1/2 [6]: > 24 h

Structure (SMILES): CC(C)(CCC(C(N)=O)(c1ccccc1)c1ccccc1)N1CC(Oc2cccc(O)c2F)C1
- TIME [1]: > 16 h
- IC50 [2]: 3.48 nM
- ED50 [3]: 4 µg

Structure (SMILES): CC(C)(CCC(C(N)=O)(c1ccccc1)c1ccccc1)N1CC(OCc2cccc(O)c2)C1
- Ki [9]: 0.18 nM
- hepatocyte CLint [21]: 34 µL/min/1e6 cells
- microsomal CLint [7]: 13 µL/min/mg
- T1/2 [6]: 20.7 h
- microsomal CLint [8]: 364 µL/min/mg

Structure (SMILES): CC(C)(CCC(C(N)=O)(c1ccccc1)c1ccccc1)N1CC[C@@H](Oc2ccccc2)C1
- Ki [9]: 1.6 nM
- Ki [4]: 6.4 nM
- Ki [5]: 12 nM
- T1/2 [6]: > 24 h

Structure (SMILES): CC(C)(CCC(C(N)=O)(c1ccccc1)c1ccccc1)N1CC(Oc2ccc(Cl)c(O)c2)C1
- Ki [9]: 1.9 nM
- hepatocyte CLint [21]: 159 µL/min/1e6 cells
- microsomal CLint [7]: 430 µL/min/mg
- T1/2 [6]: 23.5 h
- microsomal CLint [8]: 116 µL/min/mg

Structure (SMILES): CC(C)(CCC(C(N)=O)(c1ccccc1)c1ccccc1)N1CC(Oc2cc(O)cc(Cl)c2)C1
- Ki [9]: 0.22 nM
- hepatocyte CLint [21]: 116 µL/min/1e6 cells
- microsomal CLint [7]: 223 µL/min/mg
- microsomal CLint [8]: 361 µL/min/mg
